Legend:
AMBEL (Ragweed, Common) = experiment: Postemergence herbicidal evaluation; assay type: in vivo, Ambrosia artemisifolia; conditions: postemergence
Summary of the method: (§1)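 Two-week seedlings sprayed postemergence at 40 psi; formulation: 1:1 acetone/water, 0.5% TWEEN 20; application ≈0.0156–0.500 kg/ha. Greenhouse grow-out, then 0–9 visual scoring at 4–5 weeks.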

CASOB (Sicklepod) = experiment: Postemergence herbicidal evaluation; assay type: in vivo, Cassia obtusifolia; conditions: postemergence
Summary of the method: as §1

GALAP (Galium) [1] = experiment: Postemergence herbicidal evaluation; assay type: in vivo, Galium aparine; conditions: postemergence
Summary of the method: as §1

[2] = test system: GLXMAW (Soybean, Williams); experiment: Postemergence herbicidal evaluation; assay type: in vivo, Glycine max, (L.) Merr. cv Williams; conditions: postemergence
Summary of the method: as §1

[3] = test system: TRZAWR (Wheat, Winter, cv Riband); experiment: Postemergence herbicidal evaluation; assay type: in vivo, Triticum aestivum; conditions: postemergence
Summary of the method: as §1

GALAP (Galium) [4] = experiment: Preemergence herbicidal evaluation; assay type: in vivo, Galium aparine; conditions: rated 4-5 weeks after treatment
Summary of the method: (§2)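 Scores use a 0–9 visual scale covering stand, vigor, malformation, size and chlorosis relative to controls, rated four to five weeks after treatment. Before emergence, soil-planted seeds were sprayed with compound in aqueous acetone at roughly 0.0156–0.500 kg/ha and held in the greenhouse.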

SETVI (Foxtail, Green) = experiment: Preemergence herbicidal evaluation; assay type: in vivo, Setaria viridis; conditions: rated 4-5 weeks after treatment
Summary of the method: as §2

ORYSAT (Rice, Tebonnet) = experiment: Preemergence herbicidal evaluation; assay type: in vivo, Oryza sativa, (L.) Tebonnet; conditions: rated 4-5 weeks after treatment
Summary of the method: as §2

[5] = test system: ECHORC (Watergrass (Calif.)); experiment: Preemergence weed control under flooded paddy conditions; assay type: in vivo, Echinochloa oryzoides; conditions: rated 3-4 weeks after treatment
Summary of the method: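 Herbicidal effect is scored visually on a 0-9 scale against an untreated control, three to four weeks after compounds are pipetted into the flood water (1.5 to 3 cm deep) over seeds planted in silt loam at 0.5 cm depth. Rates: about 0.0313 to 0.500 kg/ha.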

CYPSE (Flatsedge) = experiment: as above; assay type: in vivo, Cyperus serotinus; conditions: rated 3-4 weeks after treatment
Summary of the method: (§3)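 Ratings on a 0-9 visual scale cover stand, vigor, malformation, size, chlorosis and overall appearance relative to a control, taken three to four weeks post-treatment. Application was into flood water over freshly sown silt loam at roughly 0.0313 to 0.500 kg/ha.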

MOOVA (Monochoria) = experiment: as above; assay type: in vivo, Monochoria vaginalis; conditions: rated 3-4 weeks after treatment
Summary of the method: as §3

[6] = test system: SAGPY (Arrowhead (Pygmaea)); experiment: as above; assay type: in vivo, Sagittaria pygmaea; conditions: rated 3-4 weeks after treatment
Summary of the method: as §3

C=CCN1C(=O)C(CC(=O)NO)SC1=Nc1cc(-n2c(=O)cc(C(F)(F)F)n(C)c2=O)c(F)cc1Cl (centres unmarked) [Compound 161, 3-Allyl-2-{{2-chloro-5-[3,6-dihydro-3-methyl-2,6-dioxo-4-(trifluoromethyl)-1(2H)-pyrimidinyl]-4-fluorophenyl}imino}-4-oxo-5-thiazolidineacetohydroxamic acid]
2.5: herbicidal rating TRZAWR ([3]; rate 0.0156 kg/ha)
9.0: herbicidal rating AMBEL (AMBEL (Ragweed, Common); rate 0.0625 kg/ha) | herbicidal rating AMBEL (AMBEL (Ragweed, Common); rate 0.1250 kg/ha) | Preemergence herbicidal rating GALAP (GALAP (Galium) [4]; 0.5000 kg/ha) | Preemergence herbicidal rating SETVI (SETVI (Foxtail, Green); 0.1250 kg/ha) | Preemergence herbicidal rating SETVI (SETVI (Foxtail, Green); 0.2500 kg/ha) | Preemergence herbicidal rating SETVI (SETVI (Foxtail, Green); 0.5000 kg/ha) | Preemergence herbicidal rating ORYSAT (ORYSAT (Rice, Tebonnet); 0.2500 kg/ha) | Preemergence herbicidal rating ORYSAT (ORYSAT (Rice, Tebonnet); 0.5000 kg/ha) | herbicidal effect rating, MOOVA (MOOVA (Monochoria); 0.2500 kg/ha) | herbicidal effect rating, SAGPY ([6]; 0.2500 kg/ha)
6.0: herbicidal effect rating, SAGPY ([6]; 0.1250 kg/ha)
7.0: herbicidal rating GLXMAW ([2]; rate 0.0625 kg/ha) | Preemergence herbicidal rating GALAP (GALAP (Galium) [4]; 0.1250 kg/ha) | Preemergence herbicidal rating GALAP (GALAP (Galium) [4]; 0.2500 kg/ha) | Preemergence herbicidal rating SETVI (SETVI (Foxtail, Green); 0.0625 kg/ha) | Preemergence herbicidal rating ORYSAT (ORYSAT (Rice, Tebonnet); 0.0625 kg/ha) | Preemergence herbicidal rating ORYSAT (ORYSAT (Rice, Tebonnet); 0.1250 kg/ha) | herbicidal effect rating, MOOVA (MOOVA (Monochoria); 0.0313 kg/ha) | herbicidal effect rating, MOOVA (MOOVA (Monochoria); 0.0625 kg/ha) | herbicidal effect rating, MOOVA (MOOVA (Monochoria); 0.1250 kg/ha)
8.5: herbicidal rating GLXMAW ([2]; rate 0.1250 kg/ha)
3.0: herbicidal rating CASOB (CASOB (Sicklepod); rate 0.1250 kg/ha) | Preemergence herbicidal rating GALAP (GALAP (Galium) [4]; 0.0625 kg/ha) | herbicidal effect rating, CYPSE (CYPSE (Flatsedge); 0.2500 kg/ha)
3.5: herbicidal rating TRZAWR ([3]; rate 0.0313 kg/ha)
1.0: herbicidal rating AMBEL (AMBEL (Ragweed, Common); rate 0.0156 kg/ha) | herbicidal rating CASOB (CASOB (Sicklepod); rate 0.0313 kg/ha) | herbicidal rating CASOB (CASOB (Sicklepod); rate 0.0625 kg/ha) | herbicidal rating GALAP (GALAP (Galium) [1]; rate 0.0313 kg/ha) | Preemergence herbicidal rating ORYSAT (ORYSAT (Rice, Tebonnet); 0.0313 kg/ha)
6.5: herbicidal rating GLXMAW ([2]; rate 0.0313 kg/ha)
4.0: herbicidal rating AMBEL (AMBEL (Ragweed, Common); rate 0.0313 kg/ha) | herbicidal rating GALAP (GALAP (Galium) [1]; rate 0.1250 kg/ha) | herbicidal rating TRZAWR ([3]; rate 0.0625 kg/ha) | herbicidal effect rating, ECHORC ([5]; 0.2500 kg/ha)
2.0: herbicidal rating GALAP (GALAP (Galium) [1]; rate 0.0625 kg/ha) | herbicidal effect rating, ECHORC ([5]; 0.1250 kg/ha) | herbicidal effect rating, SAGPY ([6]; 0.0313 kg/ha)
4.5: herbicidal rating TRZAWR ([3]; rate 0.1250 kg/ha)
0.0: herbicidal rating CASOB (CASOB (Sicklepod); rate 0.0156 kg/ha) | herbicidal rating GALAP (GALAP (Galium) [1]; rate 0.0156 kg/ha) | Preemergence herbicidal rating GALAP (GALAP (Galium) [4]; 0.0156 kg/ha) | Preemergence herbicidal rating GALAP (GALAP (Galium) [4]; 0.0313 kg/ha) | Preemergence herbicidal rating SETVI (SETVI (Foxtail, Green); 0.0156 kg/ha) | Preemergence herbicidal rating SETVI (SETVI (Foxtail, Green); 0.0313 kg/ha) | Preemergence herbicidal rating ORYSAT (ORYSAT (Rice, Tebonnet); 0.0156 kg/ha) | herbicidal effect rating, ECHORC ([5]; 0.0313 kg/ha) | herbicidal effect rating, ECHORC ([5]; 0.0625 kg/ha) | herbicidal effect rating, CYPSE (CYPSE (Flatsedge); 0.0313 kg/ha) | herbicidal effect rating, CYPSE (CYPSE (Flatsedge); 0.0625 kg/ha) | herbicidal effect rating, CYPSE (CYPSE (Flatsedge); 0.1250 kg/ha)
5.0: herbicidal rating GLXMAW ([2]; rate 0.0156 kg/ha)

Reference: US20020137929A1, “1 - (3-heterocyclylphenyl) isothiourea, -isourea, -guanidine and -amidine herbicidal agents” (Intellectual Property Department, BASF Aktiengesellschaft, priority 1998, published 2002)
